How the values were obtained:
M1619 melanoma cells = experiment: MTT proliferation assay, M1619 melanoma; assay type: cell-based, human; conditions: for antiproliferative activity of gold complexed with disulfiram: M1619, compared with DS 160 nM
Procedure: (§1) Human malignant cell lines were obtained from American Type Tissue Culture Collection (Rockville, Md.). Melanoma cells lines CRL 1585 and 1619 were cultured in RPMI 1640 (GIBCO-BRL, Life Technologies, Grand Island, N.Y.) with 10% FBS and passed with nonenzymatic Cell Dissociation Solution® (Sigma). The prostate adenocarcinoma cell line CRL 1435 (PC-3) was also cultured in RPMI 1640 with 10% FBS but passed with 0.05% trypsin and 0.53 mM EDTA. The squamous lung carcinoma NCI-H520 and the adenosquamous lung carcinoma NCI-H596 cell lines were grown in RPMI 1640 supplemented with 10% FBS, 10 mM HEPES and 1.0 mM sodium pyruvate and passed with trypsin/EDTA. The small cell lung carcinoma NCI-H82 was cultured as a suspension in RPMI 1640 with 10% FBS. All of the above were grown in a 37° C. humidified environment containing 5% CO2/air. The breast carcinoma cell line MDA-MB-453 was grown in a 37° C. humidified environment with free gas exchange with atmospheric air using Leibovitz's L-15 medium with 2 mM L-glutamine and 10% FBS and was passed with trypsin/EDTA.
The effect of disulfiram (0.15 to 5.0 μM), diethyldithiocarbamate (DDC, 1.0 μM) or PDTC (0.625 to 5.0 μM) on proliferation of malignant cell lines was studied in cultures stimulated with 10% FBS. Cell numbers were quantitated 24-72 hours later. In some experiments disulfiram or PDTC were added immediately after cells were plated. In other experiments, cells were plated and allowed to grow for 24-72 hours before fresh media with disulfiram or PDTC was added, and cell numbers were assayed 24-72 hours later.
Finally, a number of dithiocarbamate effects on cells have been attributed to increasing the intracellular levels of copper ions. To further probe the role of copper in mediating cytotoxicity from disulfiram, cells were cultured with or without addition of the impermeate Cu^2+ chelator bathocuprioinedisulfonic acid (BCPS, 100 μM) added to medium to sequester Cu^2+ in the extracellular compartment. Cells were also treated 12 hours with various concentration of disulfiram (0.625 to 5.0 μM) and intracellular copper levels were measured as outlined below.
Proliferation of cultured cells was quantitated using a previously reported calorimetric method based upon metabolic reduction of the soluble yellow tetrazolium dye 3-[4,5-dimethylthiazol]-2yl-2,5-diphenyl tetrazolium bromide (MTT) to its insoluble purple formazan by the action of mitochondrial succinyl dehydrogenase (See, e.g., S. J. Hirst, et al., “Quantifying proliferation of cultured human and rabbit airway smooth muscle in response to serum and platelet derived growth factor,” Am. J. Respir. Cell Mol. Biol. 7:574-581 (1992); R. Dashtaki, et al. R., supra; S. S. Brar, et al., “Requirement for reactive oxygen species in serum-induced and platelet-derived growth factor-induced growth of airway smooth muscle,” J. Biol. Chem. 274:20017-20026 (1999)). This assay empirically distinguishes between dead and living cells. For proliferation studies, cells were seeded into 24-well uncoated plastic plates (Costar) at 50,000 cells per well and cultured with respective media and mitogens.

Melanoma M1585 = experiment: MTT proliferation assay, M1585 melanoma; assay type: cell-based; conditions: Homo sapiens; M1585 melanoma cells; read-out: 50% inhibitor concentration (IC50)
Procedure: as §1
The effect of disulfiram (0.15 to 5.0 μM), diethyldithiocarbamate (DDC, 1.0 μM) or PDTC (0.625 to 5.0 μM) on proliferation of malignant cell lines was studied in cultures stimulated with 10% FBS. Cell numbers were quantitated 24-72 hours later. In some experiments disulfiram or PDTC were added immediately after cells were plated. In other experiments, cells were plated and allowed to grow for 24-72 hours before fresh media with disulfiram or PDTC was added, and cell numbers were assayed 24-72 hours later. Synergy was studied between disulfiram and N,N′-bis(2-chloroethyl-N-nitrosourea (carmustine or BCNU, 1.0 to 1,000 μM) or cisplatin (0.1 to 100 μg/ml) added to medium. The effect of metals on disulfiram was studied with 0.2 to 10 μM copper (provided as CuSO4), zinc (as ZnCl2), silver (as silver lactate) or gold (as HAuCl4.3H2O) ions added to growth medium. No pH changes occurred with addition of metal salts to culture medium. To provide a biologically relevant source of copper, in some experiments medium was supplemented with human ceruloplasmin at doses replicating low and high normal adult serum concentrations (250 and 500 μg/ml).
Proliferation of cultured cells was quantitated using a previously reported calorimetric method based upon metabolic reduction of the soluble yellow tetrazolium dye 3-[4,5-dimethylthiazol]-2yl-2,5-diphenyl tetrazolium bromide (MTT) to its insoluble purple formazan by the action of mitochondrial succinyl dehydrogenase (See, e.g., S. J. Hirst, et al., “Quantifying proliferation of cultured human and rabbit airway smooth muscle in response to serum and platelet derived growth factor,” Am. J. Respir. Cell Mol. Biol. 7:574-581 (1992); R. Dashtaki, et al. R., supra; S. S. Brar, et al., “Requirement for reactive oxygen species in serum-induced and platelet-derived growth factor-induced growth of airway smooth muscle,” J. Biol. Chem. 274:20017-20026 (1999)). This assay empirically distinguishes between dead and living cells. For proliferation studies, cells were seeded into 24-well uncoated plastic plates (Costar) at 50,000 cells per well and cultured with respective media and mitogens. After 24-96 hours, medium was removed, cells were washed twice with 1 ml of sterile Dulbecco's modified phosphate buffered saline without Ca^2+ or Mg^2+ (DPBS), the medium was replaced with 1 ml/well fresh medium containing 100 μg/ml MTT, and plates were incubated an additional hour. MTT-containing medium was removed, 0.5 ml dimethylsulfoxide (DMSO) was added to each well, and the absorbance of the solubilized purple formazan dye was measured at 540 nm. A total of 4-6 wells were studied at each treatment condition. Preliminary studies were performed with 50-200 μg/ml MTT incubated for 15 minutes to 3 hours to determine the optimum concentration and incubation time at which the rate of conversion was linear and proportional to the number of cells present. […]

tumor cell lines = experiment: Proliferation of tumor cell lines with redox, NO synthase or cyclooxygenase agents (cell line not given); assay type: cell-based, human
Procedure: Potential redox effects of disulfiram were studied in three sets of experiments. The importance of cellular glutathione (GSH) in mediating or modulating thiocarbamate toxicity was studied by measuring levels of intracellular GSH after treatment with disulfiram. […] Also, to assess whether a nonspecific antioxidant effect of disulfiram or PDTC might account for cellular growth inhibition, we studied the effect of the potent lipophilic antioxidant probucol (1.0 to 1,000 μM) on proliferation of malignant cell lines. […] To explore the role of cyclooxygenase inhibition on tumor cell growth, cells were cultured with or without disulfiram in the presence or absence of the cyclooxygenase-1 (COX1) and cyclooxygenase-2 (COX2) inhibitors indomethacin (5μg/ml) or sodium salicylate (1 mM). To probe whether disulfiram might be inducing growth retardation by interruption or stimulation of NO production, proliferation was studied with and without disulfiram in the presence and absence of the nitric oxide […] inhibitor Nω-nitro-L-arginine added to growth medium (100 μM). […] J. Respir. Cell Mol. Biol. 7:574-581 (1992); […], et al. R., supra; S. S. Brar, et al., “Requirement for reactive oxygen species in serum-induced and platelet-derived growth factor-induced growth of airway smooth muscle,” J. Biol. Chem. 274:20017-20026 (1999)). This assay empirically distinguishes between dead and living cells. For proliferation studies, cells were seeded into 24-well uncoated plastic plates (Costar) at 50,000 cells per well and cultured with respective media and mitogens. […] MTT-containing medium was removed, 0.5 ml dimethylsulfoxide (DMSO) was added to each well, and the absorbance of the solubilized purple formazan dye was measured at 540 nm. A total of 4-6 wells were studied at each treatment condition.

`[Cl-].[Cl-].[Zn+2]` [zinc chloride] was tested, and the “effect of zinc on antiproliferative potential of disulfiram” value (M1619 melanoma cells; ZnCl2 with 0.625 μM disulfiram, grown 24 hours, additional 24 hr) was “substantially enhanced”.

For `Cc1cc(-c2ccc(S(=O)(=O)O)cc2)c2ccc3c(-c4ccc(S(=O)(=O)O)cc4)cc(C)nc3c2n1` [BCPS, bathocuproinedisulfonic acid], the “effect of Cu2+ chelator on growth inhibition from disulfiram” value (M1619 melanoma cells; 1.25 μM disulfiram with 50 or 100 μM BCPS, 48 hr) was “greatly reduces growth inhibition”.

For `CCN(CC)C(=S)[S-].O.O.O.[Na+]` [NaDDC, sodium diethyldithiocarbamate trihydrate], the “antiproliferative activity of the thiolate with DTT in medium” value (M1619 melanoma cells; NaDDC 1 μM plus DTT 100 μM, 48 hours) was “reduced by low concentrations of DTT”.

In the case of `S=C(S)N1CCCC1` [PDTC, Pyrrolidinedithiocarbamate], the IC50 (Melanoma M1585) is reported as ~1250 nM.

With `CC(C)(Sc1cc(C(C)(C)C)c(O)c(C(C)(C)C)c1)Sc1cc(C(C)(C)C)c(O)c(C(C)(C)C)c1` [probucol] the “growth of tumor cell lines” value (tumor cell lines; probucol 1.0 to 1,000 μM, data not shown) was “did not significantly inhibit growth”.

For `N=C(NCCC[C@H](N)C(=O)O)N[N+](=O)[O-]` [LNAME, Nω-nitro-L-arginine], the “increase of cellular growth” value (tumor cell lines; LNAME alone (100 μM), vs DMSO vehicle control) was 23.7±2.3%.

In the case of “dichloro(diethylthiocarbamyl)gold (II) [AuDS]”, the “antiproliferative activity of gold complexed with disulfiram” value (M1619 melanoma cells; 48 hr) is reported as “enhanced antiproliferative activity” and the “antiproliferative activity of gold complexed with disulfiram” value (M1619 melanoma cells; 48 hr, listed as complex of gold with disulfiram) is reported as “antiproliferative at nM concentrations”.

For `N.N.[Cl][Pt][Cl]` [Cisplatin, cisplatin], the “A540 of MTT Formazan” value (M1619 melanoma cells; cisplatin 1 ng/ml + DMSO vehicle, added after 48 hours, additional 24 hours) was 1.739 ± 0.041, the “A540 of MTT Formazan” value (M1619 melanoma cells; cisplatin 10 ng/ml + DMSO vehicle, added after 48 hours, additional 24 hours) was 1.447 ± 0.047 and the “A540 of MTT Formazan” value (M1619 melanoma cells; cisplatin 100 ng/ml + DMSO vehicle, added after 48 hours, additional 24 hours) was 1.372 ± 0.052. For the same molecule, the “A540 of MTT Formazan” value (M1619 melanoma cells; cisplatin 1,000 ng/ml + DMSO vehicle, added after 48 hours, additional 24 hours) was 1.381 ± 0.098.

`O=NN(CCCl)C(=O)NCCCl` [Carmustine] was tested, and the “A540 of MTT Formazan” value (M1619 melanoma cells; carmustine 1 μM + DMSO vehicle, 24 hours) was 0.197 ± 0.004, the “A540 of MTT Formazan” value (M1619 melanoma cells; carmustine 10 μM + DMSO vehicle, 24 hours) was 0.152 ± 0.011 and the “A540 of MTT Formazan” value (M1619 melanoma cells; carmustine 100 μM + DMSO vehicle, 24 hours) was 0.020 ± 0.002. For the same molecule, the “A540 of MTT Formazan” value (M1619 melanoma cells; carmustine 1,000 μM + DMSO vehicle, 24 hours) was 0.003 ± 0.000.

B1: ceruloplasmin: 132-kD glycoprotein carrying 7 copper atoms, the major copper-carrying protein in human plasma (protein, UniProt P00450 20-1065, looked up)
Ceruloplasmin: KEKHYYIGIIETTWDYASDHGEKKLISVDTEHSNIYLQNGPDRIGRLYKKALYLQYTDETFRTTIEKPVWLGFLGPIIKAETGDKVYVHLKNLASRPYTFHSHGITYYKEHEGAIYPDNTTDFQRADDKVYPGEQYTYMLLATEEQSPGEGDGNCVTRIYHSHIDAPKDIASGLIGPLIICKKDSLDKEKEKHIDREFVVMFSVVDENFSWYLEDNIKTYCSEPEKVDKDNEDFQESNRMYSVNGYTFGSLPGLSMCAEDRVKWYLFGMGNEVDVHAAFFHGQALTNKNYRIDTINLFPATLFDAYMVAQNPGEWMLSCQNLNHLKAGLQAFFQVQECNKSSSKDNIRGKHVRHYYIAAEEIIWNYAPSGIDIFTKENLTAPGSDSAVFFEQGTTRIGGSYKKLVYREYTDASFTNRKERGPEEEHLGILGPVIWAEVGDTIRVTFHNKGAYPLSIEPIGVRFNKNNEGTYYSPNYNPQSRSVPPSASHVAPTETFTYEWTVPKEVGPTNADPVCLAKMYYSAVEPTKDIFTGLIGPMKICKKGSLHANGRQKDVDKEFYLFPTVFDENESLLLEDNIRMFTTAPDQVDKEDEDFQESNKMHSMNGFMYGNQPGLTMCKGDSVVWYLFSAGNEADVHGIYFSGNTYLWRGERRDTANLFPQTSLTLHMWPDTEGTFNVECLTTDHYTGGMKQKYTVNQCRRQSEDSTFYLGERTYYIAAVEVEWDYSPQREWEKELHHLQEQNVSNAFLDKGEFYIGSKYKKVVYRQYTDSTFRVPVERKAEEEHLGILGPQLHADVGDKVKIIFKNMATRPYSIHAHGVQTESSTVTPTLPGETLTYVWKIPERSGAGTEDSACIPWAYYSTVDQVKDLYSGLIGPLIVCRRPYLKVFNPRRKLEFALLFLVFDENESWYLDDNIKTYSDHPEKVNKDDEEFIESNKMHAINGRMFGNLQGLTMHVGDEVNWYLMGMGNEIDLHTVHFHGHSFQYKHRGVYSSDVFDIFPGTYQTLEMFPRTPGIWLLHCHVTDHIHAGMETTYTVLQNEDTKSG
In the case of B1, the “effect of ceruloplasmin on antiproliferative activity of disulfiram” value (M1619 melanoma cells; ceruloplasmin 500 μg/ml with disulfiram, 24 hours) is reported as “enhance the antiproliferative activity of disulfiram”.

— US6548540B2, “Method of treating cancer using dithiocarbamate derivatives” (Charlotte-Mecklenburg Hospital Authority, priority 1998, dated 2003)
